Reference: patent publication US10004713B2 (SICHUAN JIUZHANG BIOLOGICAL SCIENCE AND TECHNOLOGY CO., LTD, priority 2014, dated 2018)

Assays:
[1] = test system: human brain glioma; assay: Inhibitory effect of chlorogenic acid on transplanted glioma in mice (tumor weight); assay type: in vivo; conditions: 15 d; for Tumor weight: x ± s
Experimental: (1) Model establishment 50 mice were divided into 5 groups, 10 mice for each group. The solution of brain glioblastoma cell lines was suitably diluted, and inoculated in cortex of left temporal lobe of mice in five groups, respectively.
(2) Administration and intervention After inoculated for 24 h, five groups of mice were administrated by intraperitoneal injection. […] (3) Measuring inhibitory rate On the last day, administration was ceased, and all mice were sacrificed. Mice were dissected, and tissue of tumor was removed and weighed. Inhibitory Rate=(the Mean Tumor Weight of Control Group−the Mean Tumor Weight of Treatment Group)/the Mean Tumor Weight of Control Group×100%. (4) Statistical method The data were presented as mean±standard deviation (x±s), and statistical analysis was performed using SPSS15.0 software, and p<0.05 was considered to be a statistically significant difference. 3. Results

[2] = test system: human brain oligodendroglioma cells; assay: Inhibitory effect of chlorogenic acid on proliferation of primary culture human brain oligodendroglioma cells (MTT method / WST-1); assay type: cell-based; conditions: 48 h
[3] = test system: C6 glioma cells; assay: In vitro inhibitory effect against C6 glioma cells by MTT method; assay type: cell-based, rat; conditions: 48 h; for OD values 1: replicate 1; for OD values 2: replicate 2; for OD values 3: replicate 3
Experimental: (§1) 3. Cell line: C6 rat glioma cell lines for experiment is provided by Key Laboratory of Transplant Engineering and Immunology, Ministry of health, West China Hospital, Sichuan University.
(§2) (1) Cells, growing in serum-containing medium and serum-free medium and presenting exponential growth phase, were taken out, and digested with pancreatin, to form single cells. Tumor cells were still seeded in serum-containing medium, while tumor stem cells were seeded in serum-free medium. Their concentrations were both adjusted to 2.0×10^5/ml, and cells were seeded in 96 well plate, 100 μl for each well. Amongst, four groups were experimental groups, and one group was negative control; the medium without cells was used as blank control, and each group had five repeated wells. Culture was carried out in an incubator at 37° C. with 5% CO2 and saturated humidity for one night. When seeding in 96 well plate, peripheral wells were not used to avoid the edge effect.
(§3) (2) Next day after inoculation, cells attached before administration was carried out and static culture was kept for 48 h.
(§4) (3) Wells for normal control group of tumor cells were included, and the wells were not treated with drug, and only equal amount (100 μl) of complete medium was added. Experiment on normal control group was performed, together with above three groups.
(§5) (4) The culture was continued under 5% CO2 at 37° C., and after culturing for 48 h, cells were placed under inverted microscope for observation and taking a picture.
(§6) (5) On sterile bench board, 20 μL 0.5% MTT was added to each well, and the culture was continued for 4 h. At 37° C., the culture was stood for overnight (same time for each group), then OD values were tested using microplate reader, while the absorbance of each well was measured at […].
(§7) (6) Calculating inhibitory rate of cell growth Formula: Inhibitory rate of cell growth IR (%)=1−(OD value of cells in experimental group/OD value of cells in control group)×100%. (III) Statistical Analysis

[4] = test system: C6 glioma stem cells; assay: In vitro inhibitory effect against C6 glioma stem cells by MTT method; assay type: cell-based, rat; conditions: 48 h; for OD values 1: replicate 1; for OD values 2: replicate 2; for OD values 3: replicate 3
Experimental: as §1
(1) C6 cells were seeded in traditional serum medium and sub-cultured in culture bottle. Cells in exponential phase of growth were washed with PBS solution, digested with 0.25% trypsin, and pipetted by self-made pasteur pipette, to form single cells. Cells were resuspended in SFM, stained with trypan blue, and counted. Cells were seeded in culture bottle with a bottom area of 25 cm^2 at a concentration of 1×10^5/well, and placed in an incubator at 37° C. with 5% CO2 and saturated humidity for culture.
The medium was sucked out and centrifuged before half of old medium was removed, then centrifuged at 800 rpm/min for 5 min. The supernatant was discarded. Cells are resuspended in SFM, and gentle pipette with self-made pasteur pipette was repeated, for dissociating cell dumps into single cells. In a ratio of 1:2 or 1:3, cells were seeded in culture bottles with a bottom area of 25 cm^2, and diluted with SFM to 6 ml; alternatively, at the same concentration, cells were seeded in 6 well plate. To each well, was added 2.5 ml SFM, and continued culturing in an incubator at 37° C. with 5% CO2 and saturated humidity.
as §2, with “Amongst, four groups were experimental groups, and one group was negative control; the medium without cells was used as blank control, and each group had five repeated wells.” left out
as §3, §4, §5, §6, §7

[5] = High dose 40 mg/kg intraperitoneal
[6] = Low dose 10 mg/kg intraperitoneal
[7] = Rattus norvegicus, 16 μg/ml, read-out: Inhibitory rate (%)
[8] = Rattus norvegicus, 32 μg/ml, read-out: Inhibitory rate (%)
[9] = Rattus norvegicus, 64 μg/ml, read-out: Inhibitory rate (%)
[10] = Rattus norvegicus, 128 μg/ml, read-out: Inhibitory rate (%)

## CC(=O)O[C@@]12CO[C@@H]1C[C@H](O)[C@@]1(C)C(=O)[C@H](O)C3=C(C)[C@@H](OC(=O)[C@H](O)[C@@H](NC(=O)OC(C)(C)C)c4ccccc4)C[C@@](O)([C@@H](OC(=O)c4ccccc4)[C@H]21)C3(C)C [Positive control group, docetaxel, reference compound]
[1]; 5 mg/kg intraperitoneal
  Inhibitory rate (%): 73.3%
  Tumor weight: 0.389 ± 0.305 g

## O=C(/C=C/c1ccc(O)c(O)c1)O[C@@H]1C[C@](O)(C(=O)O)C[C@@H](O)[C@H]1O [chlorogenic acid]
[2]; compared with normal control group
  Cellular morphology under inverted microscope: obvious decrease of cell numbers
[2]; Homo sapiens, 32 μg/ml, read-out: Inhibitory rate (%)
  inhibition at 32 µg/mL: 39.9%
[2]; Homo sapiens, 64 μg/ml, read-out: Inhibitory rate (%)
  inhibition at 64 µg/mL: 44.9%
[2]; Homo sapiens, 128 μg/ml, read-out: Inhibitory rate (%)
  inhibition at 128 µg/mL: 60.4%
[1]; [5]
  Inhibitory rate (%): 60.58%
  Tumor weight: 0.529 ± 0.168 g
[1]; [6]
  Inhibitory rate (%): 48.51%
  Tumor weight: 0.690 ± 0.188 g
[1]; Middle dose 20 mg/kg intraperitoneal
  Inhibitory rate (%): 69.92%
[3]; 16 μg/ml
  OD values mean: 1.515
  OD values 1: 1.640
  OD values 2: 1.553
  OD values 3: 1.351
[3]; 32 μg/ml
  OD values mean: 1.472
  OD values 1: 1.558
  OD values 2: 1.573
  OD values 3: 1.286
[3]; 64 μg/ml
  OD values mean: 1.326
  OD values 1: 1.314
  OD values 2: 1.247
  OD values 3: 1.417
[3]; 128 μg/ml
  OD values mean: 1.028
  OD values 1: 1.021
  OD values 2: 1.023
  OD values 3: 1.041
[3]; [7]
  inhibition at 16 µg/mL: 32.1%
[3]; [8]
  inhibition at 32 µg/mL: 34%
[3]; [9]
  inhibition at 64 µg/mL: 40.6%
[3]; [10]
  inhibition at 128 µg/mL: 53.9%
[4]; 16 μg/ml
  OD values mean: 1.715
  OD values 1: 1.713
  OD values 2: 1.700
  OD values 3: 1.731
[4]; 32 μg/ml
  OD values mean: 1.634
  OD values 1: 1.533
  OD values 2: 1.739
  OD values 3: 1.631
[4]; 64 μg/ml
  OD values mean: 1.378
  OD values 1: 1.367
  OD values 2: 1.358
  OD values 3: 1.410
[4]; 128 μg/ml
  OD values mean: 1.223
  OD values 2: 1.200
[4]; [7]
  inhibition at 16 µg/mL: 23.2%
[4]; [8]
  inhibition at 32 µg/mL: 26.8%
[4]; [9]
  inhibition at 64 µg/mL: 38.2%
[4]; [10]
  inhibition at 128 µg/mL: 45.2%
